Broadly, the melting point is the temperature, or range, at which the solid turns liquid.

Turning to `O=C(Oc1ccccc1)n1c(C(F)(F)F)nc2c([N+](=O)[O-])cc(C(F)(F)F)cc21`, the melting point lay in the range of 100 to 103 °C.

`COC(=O)COc1ccc2cc(CNC(=O)OC(C)(C)C)ccc2c1Br` registered a melting point of 96 to 100 °C.

`COc1cc(C(=O)N(C(C)C)C(C)C)ccc1OCCCCOc1ccc(C(N)=NO)cc1` came in with a melting point of 63 to 65 °C.

On to `O=C(O)c1ccc(NCCCCCc2ccccc2)cc1`, for which the melting point lay within 141 to 143 °C.

Compound `CCOC(=O)c1cn(C2CC2)c2nc(SCC)ncc2c1=O` had a melting point of 138 °C.

For `C=CCCCCCCOc1ccc(CCC(N)(CO)CO)cc1`, the melting point was in the range of 95 to 98 °C.

In turn, `CC12CCC(C(=O)N(CCCCN3CCN(c4ncccn4)CC3)C1=O)C2(C)C` (stereo unspecified) gave a melting point of 92 to 94 °C.

Consider `O=C1C=CC(O)(c2ccccn2)C=C1`, for which the melting point was in the range of 116 to 117 °C.

As for `COc1cc2cnnc(N3CCC(CCN(C)C(=O)N(C)C)CC3)c2cc1OC`, the melting point is 140 to 141 °C.

`CCNC(=S)NNC(=O)c1ccc(N)cc1`: the melting point was 113 to 115 °C.

`COC(=O)CCCNC(=O)/C=C/C=C/c1ccccc1`: the melting point lay in the range of 153 to 155 °C.

For `COCCN1CCc2ccc(Nc3ncc(Cl)c(Nc4ccc(N5CCOCC5)cc4OCCC#N)n3)cc2CC1`, the melting point fell in the range of 91 to 96 °C.

`Nc1ccc2c(OCc3nc4ccccc4s3)cccc2c1` displayed a melting point of 141 to 143 °C.

Regarding `C#CCOc1cc(-c2ncc(C(F)(F)F)cc2F)c(F)cc1Cl`, the melting point was in the range of 68 to 70 °C.

In turn, `Cc1nc(C(O)(c2nc(C)c(C)s2)C(C)(C)C)sc1C` gave a melting point of 91 to 92 °C.

`CC(C)N(CCCNC(=O)Cn1ncc(-c2ccccc2)c1-c1ccccc1)C(C)C` registered a melting point of 83 to 84 °C.

In turn, `Cc1cc(C(=O)c2ccccc2)c(OCCCCCCCCO)cc1N(C)C` had a melting point of 56.9 °C.

Compound `CN(C)C(=O)c1ccccc1CS(N)(=O)=O` displayed a melting point of 149 to 154 °C.

On to `COc1ccc(N2CCOCC2)c2sc(NC(=O)C[C@H]3CC[C@@H](O)CC3)nc12`, for which the melting point lay in the range of 212 to 216 °C.

`CNc1nc(-c2cccc(CCc3ccccc3)c2)c2cc(OC)c(OC)cc2n1` registered a melting point of 95 to 97 °C.

With `Cc1ccc(S(=O)(=O)N2CCC(S(=O)(=O)c3ccc(Cl)cc3)CC2)cc1`, the melting point fell in the range of 263 to 264 °C.

Consider `COc1ccc(C(CC(=O)NCc2ccccc2)N2C(=O)c3ccccc3C2=O)cc1OC` (stereo unspecified), for which the melting point lay in the range of 208 to 210 °C.

With `COC(=O)[C@@H]1CSC(=S)N1CC(C)(C)SCc1ccc(OC)cc1`, the melting point lay in the range of 125 to 127 °C.

On to `Fc1ccccc1CC[C@H]1CNCCN1`, for which the melting point lay within 94 to 99 °C.

In the case of `CC(C)=CCC(C(=O)O)C(=O)O`, the melting point was in the range of 96 to 97 °C.

On to `CN1C(=O)CCC2(C)c3ccc(Sc4cncc5ccccc45)cc3CCC12` (stereo unspecified), for which the melting point lay in the range of 161 to 163 °C.

Consider `COc1cc(N)c([N+](=O)[O-])cc1C(=O)O`, for which the melting point is 254 °C.

`O=C(O)c1nc2c(NCc3ccccc3)ncnc2n1C1OC(CO)C(O)C1O` (stereo unspecified) showed a melting point of 125 to 127 °C.

`COc1ccc(C(=O)Nc2ccc(Cl)c(Cl)c2)cc1N`: the melting point fell in the range of 179 to 182 °C.

Take `CCc1oc(C)cc(=O)c1O`: the melting point fell in the range of 157 to 159 °C.

As for `Cc1c(C(=O)OC(C)C)ncc2c1c1c(OCc3ccccc3)cccc1n2CC(=O)N(C)CCc1ccccc1`, the melting point fell in the range of 69 to 74 °C.

As for `Cc1oc(-c2ccccc2)nc1CCc1nc(COc2cccc(CC(=O)O)c2)co1`, the melting point fell in the range of 127 to 128 °C.

`Cc1nnc2ncc(-c3ccccc3)cn12`: the melting point was in the range of 199 to 200 °C.

The compound `N#Cc1c(NC(=O)CO)cccc1N1CCCCC1` yielded a melting point of 121 to 124 °C.

Turning to `O=C(O)CN1C(=O)C(=CC2CCCCC2)SC1=S`, the melting point lay in the range of 191 to 193 °C.

For the compound `CCOC(=O)c1c(CN(CC)CC)nc2sc3c(c2c1-c1ccc(OC)c(OC)c1)CCCN3C(=O)OCc1ccccc1`, the melting point lay within 138 to 139 °C.
